The source made the active and inactive calls.
Legend:
[1] = target: Glycogen synthase kinase-3 alpha (Homo sapiens, UniProt P49840); assay: Inhibition of Human GSK-3 alpha Activity Measured in Biochemical System Using Microfluidics - 2063-06_Inhibitor_Dose_DryPowder_Activity_Set2. [Related pubchem assays (depositor defined):AID2709]
[2] = inhibitors of non-replicating M. tuberculosis, dose response, luciferase, dry powder (AID 651620); assay type: functional; conditions: Mycobacterium tuberculosis
[3] = target: Glycogen synthase kinase-3 beta (Homo sapiens, UniProt P49841); assay: Inhibition of Human GSK-3 beta Activity Measured in Biochemical System Using Microfluidics - 2063-05_Inhibitor_Dose_DryPowder_Activity_Set2. [Related pubchem assays (depositor defined):AID2709]
[4] = inhibitors of non-replicating M. tuberculosis, dose response, luciferase, dry powder (AID 651619); assay type: functional; conditions: Mycobacterium tuberculosis
CHO-K1 = assay: (§1) Counterscreen for antagonists of the orexin 1 receptor (OX1R; HCRTR1): Homogeneous time resolved fluorescence (HTRF)-based cell-based dose response assay to identify antagonists of the parental CHO-K1 cell line. [Related pubchem assays (depositor defined):AID434989, AID435008, AID463079, AID485270, AID492963, AID492964, AID492965, AID493232, AID504699, AID504701]; assay type: functional; conditions: Cricetulus griseus
Orexin receptor type 2 [5] = target: T1, Orexin receptor type 2 (Homo sapiens, UniProt O43614); assay: Counterscreen assay for antagonists of the orexin 1 receptor (OX1R; HCRTR1): Homogeneous Time Resolved Fluorescence (HTRF)-based cell-based dose response assay for antagonists of the orexin 2 receptor (OX2R; HCRTR2), run by assay provider.; assay type: functional
T1 sequence (O43614 whole entry): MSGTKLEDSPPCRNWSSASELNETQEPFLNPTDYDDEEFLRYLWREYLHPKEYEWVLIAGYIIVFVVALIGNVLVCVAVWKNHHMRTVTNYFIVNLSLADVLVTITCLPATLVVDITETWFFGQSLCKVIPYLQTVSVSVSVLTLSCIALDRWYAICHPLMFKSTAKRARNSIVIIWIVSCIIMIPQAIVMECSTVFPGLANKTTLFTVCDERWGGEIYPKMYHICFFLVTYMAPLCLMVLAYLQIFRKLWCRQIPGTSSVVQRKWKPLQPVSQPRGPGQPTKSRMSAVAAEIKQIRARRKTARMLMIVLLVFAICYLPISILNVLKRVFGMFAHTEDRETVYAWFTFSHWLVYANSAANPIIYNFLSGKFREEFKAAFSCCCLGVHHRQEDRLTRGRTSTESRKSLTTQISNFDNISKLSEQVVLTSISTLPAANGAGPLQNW

[6] = test system: Streptococcus sp. 'group A'; assay: Streptococcus pyogenes SK(-)GAS viability under kanamycin – luminescence, BacTiterGlo, confirmation, counter-screen for streptokinase expression inhibitor project, dose response (AID 1900); assay type: functional, organism-based
[7] = target: T2, Orexin/Hypocretin receptor type 1 (Homo sapiens, UniProt O43613); assay: Homogeneous Time Resolved Fluorescence (HTRF)-based cell-based high throughput dose response assay for antagonists of the orexin 1 receptor (OX1R; HCRTR1). [Related pubchem assays (depositor defined):AID434989, AID435008, AID463079, AID485270, AID492963, AID492964, AID492965, AID493232, AID504717, AID504718]; assay type: functional
T2 sequence (O43613 whole entry): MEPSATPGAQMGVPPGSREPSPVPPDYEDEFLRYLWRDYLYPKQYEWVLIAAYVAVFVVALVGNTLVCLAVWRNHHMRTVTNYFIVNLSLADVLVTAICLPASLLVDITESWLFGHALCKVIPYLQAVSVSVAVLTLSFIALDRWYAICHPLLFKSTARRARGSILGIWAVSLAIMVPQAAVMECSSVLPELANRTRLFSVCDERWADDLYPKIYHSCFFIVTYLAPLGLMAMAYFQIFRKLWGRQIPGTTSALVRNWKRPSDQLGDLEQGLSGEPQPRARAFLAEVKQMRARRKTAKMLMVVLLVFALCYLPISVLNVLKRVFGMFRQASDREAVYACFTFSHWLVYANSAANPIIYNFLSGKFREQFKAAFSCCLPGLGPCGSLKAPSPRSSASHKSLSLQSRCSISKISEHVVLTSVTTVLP

Orexin receptor type 2 [8] = target: T1, Orexin receptor type 2; assay: Counterscreen assay for antagonists of the orexin 1 receptor (OX1R; HCRTR1): Fluorescence-based cell-based dose response assay for antagonists of the orexin 2 receptor (OX2R; HCRTR2), run by assay provider.; assay type: functional
[9] = as §1, with “Fluorescence-based” for “Homogeneous time resolved fluorescence (HTRF)-based”, “cell-based high throughput” for “cell-based”, “CHO” for “CHO-K1”; assay type: functional
[10] = viability loss in HEK293 cells – cell-based, plate reader, cherry-picked samples, cytotoxicity control, dose response (AID 743446); assay type: functional
[11] = target: T2, Orexin/Hypocretin receptor type 1; assay: Fluorescence-based cell-based high throughput dose response assay for antagonists of the orexin 1 receptor (OX1R; HCRTR1). [Related pubchem assays (depositor defined):AID434989, AID435008, AID463079, AID485270, AID492963, AID492964, AID492965, AID493232, AID504717, AID504718]; assay type: functional
Streptokinase A = target: T3, Streptokinase A (Streptococcus pyogenes serotype M1, UniProt P10520); assay: viability-normalized secreted streptokinase activity reduction – plasminogen activation absorbance, OD405, dose response (AID 1914); assay type: functional, Streptococcus pyogenes M1 GAS;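 note: secreted streptokinase activity via plasminogen activation per viability signal from cell pellet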
T3 sequence (P10520 whole entry): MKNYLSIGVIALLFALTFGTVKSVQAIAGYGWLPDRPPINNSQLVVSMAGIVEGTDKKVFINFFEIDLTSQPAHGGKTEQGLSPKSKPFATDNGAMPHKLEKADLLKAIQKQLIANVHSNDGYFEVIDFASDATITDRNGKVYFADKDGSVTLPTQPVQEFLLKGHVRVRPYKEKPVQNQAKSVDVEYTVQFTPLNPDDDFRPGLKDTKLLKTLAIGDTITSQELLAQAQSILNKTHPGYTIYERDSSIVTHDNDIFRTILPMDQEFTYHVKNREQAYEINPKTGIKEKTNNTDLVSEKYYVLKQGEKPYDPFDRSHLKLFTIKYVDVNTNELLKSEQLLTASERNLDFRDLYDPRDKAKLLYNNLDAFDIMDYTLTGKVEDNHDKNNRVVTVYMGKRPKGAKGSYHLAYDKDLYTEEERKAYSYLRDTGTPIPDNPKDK

Streptococcus = assay: GAS UMAA2166 growth inhibition – luminescence, BacTiterGlo, counter-screen for streptokinase expression inhibitor project, dose response (AID 1915); assay type: functional, organism-based;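 note: potency for reduction of bacterial viability or growth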
[12] = blockade of melanocortin 4 receptor signaling – cell-based, plate reader, cherry pick, counter-screen for LGR2 antagonist project, dose response (AID 743444); assay type: functional;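 note: transfected HEK 293 cells stimulated with alpha-MSH peptide; potency of inhibitors of the alpha-MSH evoked signal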
CAAX prenyl protease 2 = target: T4, CAAX prenyl protease 2 (Saccharomyces cerevisiae S288c, UniProt Q03530); assay type: biochemical
T4 sequence (Q03530 whole entry): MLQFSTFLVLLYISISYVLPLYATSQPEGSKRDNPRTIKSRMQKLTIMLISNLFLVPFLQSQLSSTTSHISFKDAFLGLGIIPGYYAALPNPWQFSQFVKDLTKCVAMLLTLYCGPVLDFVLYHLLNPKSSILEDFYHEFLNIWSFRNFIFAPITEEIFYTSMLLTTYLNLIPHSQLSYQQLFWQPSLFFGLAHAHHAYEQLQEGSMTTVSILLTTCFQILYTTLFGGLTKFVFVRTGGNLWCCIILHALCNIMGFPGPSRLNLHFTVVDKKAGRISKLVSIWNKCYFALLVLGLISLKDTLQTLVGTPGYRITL

[13] = toxicity toward HepG2 liver cells – cell-based, plate reader, cherry-pick, antagonist series, cytotoxicity control, dose response (AID 743416); assay type: functional
[14] = A549 cell cytotoxicity, dose response, cytotoxicity control, plate reader, cherry-pick, antagonist series (AID 743412); assay type: functional, cell-based
[15] = target: T5, High affinity choline transporter 1 (Homo sapiens, UniProt Q9GZV3); assay: human choline transporter potentiators, potency – cell-based, 10-point CRC, membrane potential dye, dose response (AID 602376); assay type: functional
T5 sequence (Q9GZV3 whole entry): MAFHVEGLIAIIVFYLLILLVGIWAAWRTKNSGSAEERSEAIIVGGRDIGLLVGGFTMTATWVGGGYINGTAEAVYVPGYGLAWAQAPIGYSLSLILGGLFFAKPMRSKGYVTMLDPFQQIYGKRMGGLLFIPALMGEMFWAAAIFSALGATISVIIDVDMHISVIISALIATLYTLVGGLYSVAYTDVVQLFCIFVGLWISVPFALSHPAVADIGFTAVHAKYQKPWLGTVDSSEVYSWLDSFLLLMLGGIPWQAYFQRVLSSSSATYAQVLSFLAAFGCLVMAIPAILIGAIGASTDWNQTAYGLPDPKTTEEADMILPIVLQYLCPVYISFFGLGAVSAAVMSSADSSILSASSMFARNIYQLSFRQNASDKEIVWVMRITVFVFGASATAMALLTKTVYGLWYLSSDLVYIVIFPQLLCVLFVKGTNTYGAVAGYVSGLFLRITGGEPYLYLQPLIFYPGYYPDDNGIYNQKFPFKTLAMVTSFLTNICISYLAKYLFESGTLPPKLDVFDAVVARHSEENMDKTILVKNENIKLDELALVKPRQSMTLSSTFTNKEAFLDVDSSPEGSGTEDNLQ

Chain of Glycogen synthase kinase-3 alpha (P49840 whole entry): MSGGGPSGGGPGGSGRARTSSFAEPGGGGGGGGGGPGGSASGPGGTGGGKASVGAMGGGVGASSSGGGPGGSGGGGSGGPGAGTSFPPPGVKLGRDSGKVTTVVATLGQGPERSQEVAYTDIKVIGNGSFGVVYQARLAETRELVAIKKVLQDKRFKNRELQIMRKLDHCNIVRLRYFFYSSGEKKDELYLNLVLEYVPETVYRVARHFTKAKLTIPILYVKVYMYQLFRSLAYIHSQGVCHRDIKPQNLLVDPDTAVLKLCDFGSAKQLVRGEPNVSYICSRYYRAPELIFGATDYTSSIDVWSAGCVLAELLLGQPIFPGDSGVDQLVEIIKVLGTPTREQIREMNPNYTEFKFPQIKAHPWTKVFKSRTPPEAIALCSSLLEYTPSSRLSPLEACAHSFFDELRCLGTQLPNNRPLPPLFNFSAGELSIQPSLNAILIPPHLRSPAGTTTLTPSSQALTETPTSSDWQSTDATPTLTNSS
Chain of Glycogen synthase kinase-3 beta (P49841 whole entry): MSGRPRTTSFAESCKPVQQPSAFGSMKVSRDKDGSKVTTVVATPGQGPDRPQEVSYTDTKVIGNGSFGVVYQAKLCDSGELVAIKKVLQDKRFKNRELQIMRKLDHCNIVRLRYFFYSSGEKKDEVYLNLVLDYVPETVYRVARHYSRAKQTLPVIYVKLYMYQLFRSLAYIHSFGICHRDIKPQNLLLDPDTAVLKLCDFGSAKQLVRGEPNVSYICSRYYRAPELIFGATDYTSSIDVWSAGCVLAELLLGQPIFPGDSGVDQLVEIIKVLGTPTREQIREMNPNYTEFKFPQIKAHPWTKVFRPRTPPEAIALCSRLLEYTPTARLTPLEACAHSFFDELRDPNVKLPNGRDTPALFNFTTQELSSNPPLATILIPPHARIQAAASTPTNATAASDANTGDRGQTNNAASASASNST

With `Fc1ccc(CSc2nnc(-c3ccncc3)o2)cc1` the AC50 [1] was 3.37 µM (active), the IC90 [2] was 4 µM (active) and the AC50 [3] was 578 nM (active). For the same compound, the IC90 [4] was 4 µM (active).
For `O=[N+]([O-])c1ccc(-c2c[nH]c(SC(c3ccccc3)c3ccccc3)n2)cc1`, the IC50 (CHO-K1) was > 66.2 µM (inactive), the IC50 (Orexin receptor type 2 [5]) was > 50 µM (inactive) and the EC50 [6] was 6.07 µM (active). For the same compound, the IC50 [7] was 5.72 µM (active), the IC50 (Orexin receptor type 2 [8]) was 29.7 µM (inactive) and the IC50 [9] was 32.6 µM (inactive). For the same compound, the AC50 [10] was 22.2 µM (active), the IC50 [11] was 7.34 µM (active) and the EC50 (Streptokinase A) was 15.2 µM (active). The EC50 (Streptococcus) was > 150 µM (not active), the AC50 [12] was 7.88 µM (active) and the AC50 (CAAX prenyl protease 2) was 2.05 µM (active). The AC50 [13] was 19.1 µM (active) and the AC50 [14] was 19 µM (active).
With `CC(C)c1ccccc1NC(=O)Cn1c(-c2ccccc2Cl)nc2ccccc21` the EC50 [15] was 18.3 µM (active).
For `O=[N+]([O-])c1cccc(-c2nc(-c3cccs3)c(-c3cccs3)[nH]2)c1`, the IC50 (CHO-K1) was > 66.2 µM (inactive), the IC50 (Orexin receptor type 2 [5]) was 3.2 µM (active) and the IC50 [7] was 6.65 µM (active). For the same compound, the IC50 (Orexin receptor type 2 [8]) was 28.8 µM (inactive), the IC50 [9] was > 49.8 µM (inactive) and the IC50 [11] was > 5.53 µM (active).

— ChEMBL document CHEMBL1201862, “PubChem BioAssay data set” (2004)
